Reference: patent publication US5055479A, “Method of treating cachexia” (Sankyo Company, Limited, priority 1988, dated 1991)

Assays:
[1] = Acute toxicity in rats, subcutaneous injection; conditions: rat, in vivo, sc
Text: (§1) All of the compounds of formula (I) employed in the present invention have shown low toxicity and high safety, with limited side effects.

[2] = system: plasma lipoprotein lipase; experiment: Enhancement of plasma lipoprotein lipase activity in mice; type: in vivo, mice (Balb/c); conditions: 9 mg/kg via tail vein, 21 hours later
Description: Female mice (Balb/c, 10 weeks old, n=6, i.e. the number in each test group was 6) were injected with 9 mg/kg of the test compound (Compound No. 1-19) via the tail vein. Twenty one hours later, the activities of the plasma lipoprotein lipase were determined according to Vlassara's method. [Horm. Metabol. Res., 18, 698-703(1986)].
Activities of the plasma lipoprotein lipase in control mice receiving physiological saline were expressed as 100 and the relative value is shown in the following Table 5.

[3] = system: tumor cells, adenocarcinoma C-12G; experiment: Improving cachexia and increasing life-span of tumor bearing mice; type: in vivo, mouse (CSF1)
Text: A mouse cachexia model was made by inoculating 6×10^5 viable tumor cells, adenocarcinoma C-12G, subcutaneously into the right axillary region of a CSF1 mouse (8-9 weeks old, female weighing 21-24 g, n=10). The viable tumor cells were counted under a microscope after staining them with 0.4% of trypan blue (Sigma Co.).
The growth of this kind of tumor, inoculated subcutaneously, causes a marked Weight loss (the weight losses of mice 16-17 days after tumor inoculation were (4.0-4.5 g), piloerection and depression of emotion and finally death.
Compound No. 1-19 (hereafter called the test compound) was suspended in saline containing 0.5% CMC (carboxymethyl cellulose) at a concentration of 4 mg/ml. The suspension was administrated orally to mice on days 1-4, 7-11, 14-24 (20 times in total) after the tumor inoculation. The status of the mice, such as weight loss. Piloerection, depression of emotion and increase in life-span, was observed.
On the other hand, for a control group of mice, saline solution containing 0.5% of CMC was given orally.
In the above, the median survival times were measured in days.

[4] = Acute toxicity in mice, intraperitoneal injection; conditions: mouse, in vivo, ip
Text: as §1

**Q.** What does the source list for Cc1nc2ncnn2c2c1CCN2C(C)(C)C [Compound 1-19, 8-t-butyl-7,8-dihydro-5-methyl-6H-pyrrolo[3,2-e][1,2,4]triazolo[1,5-a]pyrimidine]?
**A.** LD50 [1]: ≥ 100 mg/kg; lipoprotein lipase activity relative to control ([2]; of that of the control): 120%; Relative activity of the lipoprotein lipase ([2]; saline control = 100, n = 6, mean ± standard deviation, p<0.05 vs saline): 120 ± 10.6; Median Survival time ([3]; 40 mg/kg/day orally, days 1-4, 7-11, 14-24, control 28.0): 40.5 days; Increase in life-span (ILS) ([3]; 40 mg/kg/day orally, days 1-4, 7-11, 14-24, vs control): 45%; status of the mice (weight, hair retention and emotion) ([3]; oral administration, 20 times in total): extensive improvements in weight, hair retention and emotion

**Q.** For Cc1ccc(CN2CCc3c(C)nc4ncnn4c32)cc1 [Compound 1-48, 7,8-dihydro-5-methyl-8-(4-methylbenzyl)-6H-pyrrolo[3,2-e][1,2,4]triazolo[1,5-a]pyrimidine], which LD50 [4] is on record?
**A.** Its LD50 is at least 300 mg/kg.

**Q.** For COc1ccc(CN2CCc3c(C)nc4ncnn4c32)cc1 [Compound 1-49, 7,8-dihydro-8-(4-methoxybenzyl)-5-methyl-6H-pyrrolo[3,2-e][1,2,4]triazolo[1,5-a]pyrimidine], which LD50 [4] is on record?
**A.** Its LD50 is at least 300 mg/kg.

**Q.** Which LD50 [4] does the source give for Cc1nc2ncnn2c2c1CCN2Cc1ccc(Cl)cc1 [Compound 1-54, 8-(4-chlorobenzyl)-7,8-dihydro-5-methyl-6H-pyrrolo[3,2-e][1,2,4]triazolo[1,5-a]pyrimidine] here?
**A.** The LD50 was at least 300 mg/kg.

**Q.** With Cc1nc2ccnn2c2c1CCN2Cc1ccccc1 [Compound 2-2, 8-benzyl-7,8-dihydro-5-methyl-6H-pyrazolo[1,5-a]pyrrolo[3,2-e]pyrimidine] as the compound, how does the LD50 [4] read?
**A.** Its LD50 is at least 300 mg/kg.
